Results on five substances are retold here after patent publication US20250381324A1, “CD31 MIMETIC COATING FOR ENDOVASCULAR STENT” (INSERM (Institut National de la Santé et de la Recherche …, priority 2021, published 2025).

Experiment [1] deals with aneurysm-carrying artery and abdominal aorta. Description: Flow-diverter stents (CFD) implanted in rabbit aneurysm-carrying artery and abdominal aorta; SEM and histopathology (Example 3). Type of experiment: in vivo, New Zealand White rabbits. Here is the method: Flow-diverter stents (CFD) are braided meshes made of nitinol, from Sinomed. They are coated by one of the following coatings: • 1. SP1072 peptide according to the invention, or • 2. Hydrophilic polymer eG NTMA (obtained from the electrografting of N-[Tris (hydroxymethyl) Methyl]Acrylamide).
• 1) Transfer each stent in a 5 mL polypropylene round bottom tube (Bd Falcon Ref 352063). Insure the stent drops at the bottom of the tube. • 2) Add 4.5 mL of a 2 mg/mL PDA solution per tube. Homogenize each tube on a rotary wheel (approx. 20 rpm) overnight (18+/−2 h) at room temperature and protect from light. […] The stent color should change from silver to brown/black. After the incubation period the solution will become black with small PDA aggregates • 3) Transfer each stent in a new tube and rinse 3-times with demineralized water. homogenize on the rotary wheel 5 min at each rinse. • 4) Leave the last rinse and sonicate the tube for at least 30 s to discard any remaining PDA chunk. • 5) Transfer each stent in a 2 mL—Eppendorf tube containing 1.8 mL of DBCO (300 μM) per tube. Homogenize each tube on a rotary wheel (approx. 20 rpm) overnight at room temperature and protect from light. • 6) Transfer each stent in a new tube and rinse 3-times with demineralized water. Homogenize on the rotary well 5 min at each rinse. • 7) Transfer each stent in a 2 mL—Eppendorf tube containing 1.8 mL of CD31 peptide (50 μg/mL) per tube. Homogenize each tube on a rotary wheel (approx. 20 rpm) for 2 hours at room temperature and protect from light. • 8) Transfer each stent in a new tube and rinse 3-times with demineralized water. Homogenize on the rotary well 5 min at each rinse. • 9) Soak each stent in absolute Ethanol for 5 seconds before letting them dry.
Comparative hydrophilic polymer eG NTMA-coated flow diverter stents were obtained via the following protocol: • (1) Cleaning pretreatment: The stent frames were sonicated in acetone, ethanol, and water for injection for 10 min, respectively. • (2) Electro-grafting solution preparation: N-[tris(hydroxymethyl)methyl]acrylamide, concentration 0.30 M; NaNO3, concentration 0.05 M; 4-nitrophenyl tetrafluoroborate diazonium salt, 0.005 M; the remaining amount is DMSO solvent. • (3) Electro-grafting process: the pretreated stents were used as the working electrode, and a platinum foil was used as the counter electrode, which was submerged in the electro-grafting solution, and a linear sweep voltage between −0.1 and −3.0 V and back was applied between the two electrodes with a voltage scan rate of 0.05 V/s for 10 cycles. • (4) Coating smoothing and drying: the electrografted scaffold was smoothed in acetone (2 L) with nitrogen bubbling (rate 0.5-10 L/min) for 10 min and placed in a vacuum drying oven at 40° C. for 2 h.
A total of 8 healthy New Zealand White rabbits (including 2 spare animals), male and female, weighing about 3 kg, were included in this study. A total of 3 observation time points of 7 days, 30 days and 60 days postoperatively were set. The experiment was divided into two steps: 1) aneurysm animal modeling; 2) implantation of a dense mesh stent in the aneurysm-carrying artery and abdominal aorta for each animal. The stent implantation in the aneurysm-carrying artery was to be used to examine the safety and effectiveness of the stent in treating aneurysms, and the stent implantation in the abdominal aorta, covering a pair of lumbar arteries, was to be used to examine the safety of the tested stent.
Step 1) (aneurysm animal modeling) was performed as follows: • (a) The rabbit is placed supine on the operating table and the neck is shaved. […] Every 20 minutes, saline drips were injected into the rabbit's cervical vessels and vagus nerve to keep them moistened. […] Continue to use antibiotics for 3-5 days after surgery. […]

The test system of experiment [2] is Primary Human Aortic Endothelial Cells (HAEC). Put plainly: Human aortic endothelial cells grown 48 h on bare or peptide-coated nitinol disks; F-actin / CD31 staining and image analysis. Type of experiment: cell-based. As to conditions: for CD31/Actin score: Example 2, FIG. 25, repeated experiments (SP547, SP548 only one measure); for CD31 expression (physiologic endothelial phenotype), Integrated Density / F-actin expression (cellular stress), Integrated Density: HAEC 48 h on coated nitinol disks; for CD31 expression (physiologic endothelial phenotype), Integrated Density: compared to other modified disks and bare controls, FIGS. 2, 4, 5; for F-actin expression (cellular stress), Integrated Density: compared to bare metal, FIGS. 2, 3, 5. Here is the method: Nitinol disks are left untouched (bare metal) or coated with a domain 1, domain 2 or domain 1 and 2 CD31 analog peptide. The tested peptide is grafted to the nitinol disk following a polydopamine, DBCO-PEG4-amine and azide CD31 derivative peptide using a sequential dip-coating layering procedure. After this step, all the disks are incubated with Human aortic endothelial cells for 48 h. Disks are then rinsed and the cells are fixed in a formalin solution before staining. The staining is fulfilled using phalloidin coupled to AlexaFluor®488 dye (green fluorescence for Actin), DAPI is used for DNA staining and a domain 1 CD31 antibody coupled to APC is used for external Domain 1 staining. The cell adhesion and Actin/CD31 expression was evaluated by image analysis of the surface after staining.
In particular, as per FIG. 2 the bare or coated nitinol disks were placed at the bottom of culture wells. Primary Human Aortic Endothelial Cells (HAEC) were allowed to grow on the disks for a period of 48 h. The disks were thereafter rinsed with phosphate buffered saline, fixed in formalin, and processed for fluorescence microscopy. Disk-adherent cells were immersed in a solution comprising Hoechst 33342 (1 μg/ml, to stain the nuclei), phalloidin coupled to AlexaFluor®488 dye (0.5 μM, to stain F-actin fibers) and a monoclonal antibody directed against CD31 domain 1, coupled to allophycocyanin (to detect the presence and localization of intact CD31 at the cell surface) for 1 hour at 37° C., washed and mounted face down on glass bottom imaging chambers for imaging with an inverted fluorescence microscope.
Surface type is indicated on the Y axis, data are expressed as average±SD (N=6/surface type). Each dot corresponds to a specific surface modification. The F-actin expression relates the cellular stress of the cell in presence of the exogenous material.
In FIG. 4 the surface type is indicated on the Y axis. Each dot corresponds to a specific surface modification. Data are expressed as “Integrated Density” average±SD (N=6/surface type). CD31 expression relates the capacity of endothelial cells to adopt a physiologic phenotype while growing on a given substrate. An important variability is observed in terms of CD31 expression by HAEC according to the surface modification of the nitinol disks.
The “mirror” bars of FIG. 5 report the average Integrated Density of F-actin (left) and of CD31 (right) staining for each of the indicated (Y axis) type of peptide coated onto the disk surface and bare disks. Data are sorted (from the top to the bottom) according to the increase in the cellular stress (actin expression) of each coating. As shown on the figure, the degree of cellular stress (as detected by a high actin expression) and impaired endothelial phenotype (documented by a low CD31 expression) is evident on HAEC grown onto bare metal disks.
The data shown in FIG. 6 are expressed as the ratio between CD31 and F-actin expression.
The effect of different peptides, belonging to the different groups, were tested in batches following the same protocol as in FIG. 6. Different peptides from each group were tested in batches and the effect of individual peptides was repeatedly assessed in separate experiments. Data from all experiments were obtained by computer-assisted analysis of images of the disk side covered with endothelial cells, captured in the blue, green and red channel of an inverted fluorescence microscope. The functional score of the peptides belonging to the different groups was calculated by multiplying the number of cells (as detected by the number of blue, Dapi+ nuclei) for the integrated density of CD31 expression (red signal provided by the binding of a mouse anti-human CD31 monoclonal antibody, clone 9G11, conjugated allophycocyanin) and their product being divided for the integrated density of the F-actin polymerization (Phalloidin coupled to a green fluorochrome). […]

Experiment [3] deals with aneurysm-carrying artery and abdominal aorta. Put plainly: Flow-diverter stents (CFD) in rabbits without aspirin or clopidogrel after implantation (Example 4). The experiment is classed as in vivo, New Zealand White rabbits. The following applies: day 7, n=3, no aspirin nor clopidogrel after implantation; preliminary. From the text:
The same materials and protocol as in Example 3 were used, except that: • Only 3 animals were used for each condition, and • No aspirin nor clopidogrel was given to animals after the implantation.

In experiment [4] the test system is endothelial cells. The following applies: immobilized peptide, in vitro; cited from earlier work.
The mark [5] stands for this setting: day 7, aneurysm-carrying artery.
Setting [6] is: day 60, aneurysm-carrying artery.

Square brackets hold non-standard residues; d marks the D form. Primed or numbered codes have the meaning given here. Ends that are not written are not given here. Lys(N3) = [N-]=[N+]=NCCCC[C@H](N)C(=O)O; hCys = N[C@@H](CCS)C(=O)O; PEG4′ = not defined here

Consider “YKSTVIVNNKEKTTAE-PEG4-K(N3)-CONH2 (YKSTVIVNNKEKTTAE[PEG4′][Lys(N3)]-NH2) [SP1072]”, for which, in experiment [1] (Example 3 overall), the “endothelialization of inner surface of flow-diverter stents (conclusion)” value was “promotes early endothelialization on the inner surface of the flow-diverter stents”; the “endothelialization of the device at sites other than the aneurysm entry (conclusion)” value was “endothelialization of the device is fast and complete without apparent inflammation nor neointima”; the “neo arterial wall at the entry of the aneurysm sac (conclusion)” value was “promotes the growth of an organized, blood-impermeable neo arterial wall at the entry of the aneurysm sac”. Moreover, in experiment [1] (setting [5]), the “neo-wall covering the aneurysmal neck (histopathology)” value is “compact and rich in extracellular matrix (dark grey) and void of inflammation (no black nuclei) or thrombosis”; the “organization of thrombus in the aneurysmal sac (histopathology)” value was “organized”. In experiment [1] (setting [6]), the “organization of thrombus in the aneurysmal sac (histopathology)” value is given as “very well organized” and the “reaction of arterial wall in contact with stent struts (histopathology)” value is “absence of inflammation/thrombosis of the arterial wall that is already in contact with the stent struts”. In addition, in experiment [2], the CD31/Actin score entry is “significantly higher than those obtained by the bare metal disks or by disks coated with PDA alone” and the “CD31 expression (physiologic endothelial phenotype), Integrated Density” value was “evident positive effect in terms of CD31 expression”. In experiment [2] (compared to bare metal and disks coated with PDA only, FIG. 6), the “ratio between CD31 and F-actin expression” value is given as “higher CD31/actin ratio”. Besides, the “survival and thrombus after implantation” value in experiment [3] is recorded as “still alive with no thrombus”.

KWPALFVR [P8RI]: the blood element reaction entry in experiment [4] is “reduces the blood element reaction”.

In the case of “Ac-YKDDVLFYNISSMKST-GGSGGSGG-K(N3)-NH2 (Ac-YKDDVLFYNISSMKSTGGSGGSGG[Lys(N3)]-NH2; SMILES CC[C@H](C)[C@H](NC(=O)[C@H](CC(N)=O)NC(=O)[C@H](Cc1ccc(O)cc1)NC(=O)[C@H](Cc1ccccc1)NC(=O)[C@H](CC(C)C)NC(=O)[C@@H](NC(=O)[C@H](CC(=O)O)NC(=O)[C@H](CC(=O)O)NC(=O)[C@H](CCCCN)NC(=O)[C@H](Cc1ccc(O)cc1)NC(C)=O)C(C)C)C(=O)N[C@@H](CO)C(=O)N[C@@H](CO)C(=O)N[C@@H](CCSC)C(=O)N[C@@H](CCCCN)C(=O)N[C@@H](CO)C(=O)N[C@H](C(=O)NCC(=O)NCC(=O)N[C@@H](CO)C(=O)NCC(=O)NCC(=O)N[C@@H](CO)C(=O)NCC(=O)NCC(=O)N[C@@H](CCCCN=[N+]=[N-])C(N)=O)[C@@H](C)O) [SP548]”, the CD31/Actin score entry in experiment [2] is “equivalent to those of sections coated by other peptides according to the invention”.

Turning to RDQNFVILEFP-PEG4-K(N3)-NH2 [SP1070], in experiment [2], the CD31/Actin score entry was “significantly higher than those obtained by the bare metal disks or by disks coated with PDA alone” and the “F-actin expression (cellular stress), Integrated Density” value is on record as “does not show an influence on the cellular stress compared to the bare metal”.

For “hCHQMLFYKDDVLFYNISShCK-Ttds-Ttds-Ttds-Ttds-K(N3)-CONH2 ([hCys]HQMLFYKDDVLFYNISS[hCys]K-{Ttds-Ttds-Ttds-Ttds-Lys(N3)-NH2}; cysteine pairing not given here) [SP1374]”, in experiment [2], the CD31/Actin score result is on record as “significantly higher than those obtained by the bare metal disks or by disks coated with PDA alone” and the “F-actin expression (cellular stress), Integrated Density” value is on record as “low cellular stress (low actin expression)”. The “CD31 expression (physiologic endothelial phenotype), Integrated Density” value in experiment [2] (listed as 1374) is recorded as “evident positive effect in terms of CD31 expression”. Also, the “CD31 expression (physiologic endothelial phenotype), Integrated Density” value in experiment [2] (listed as SP 1374) is “consistent functional endothelial phenotype (high CD31 expression)”.
